According to BigSolDB 2.1:

Cc1cc(N)n(-c2ccccc2)n1
solubility (mole fraction)
Conditions | in 2-butanone | in acetonitrile | in ethanol | in isopropanol | in methanol | in n-propanol
283.15 K | 0.0482 | 0.124 | 0.0766 | 0.056 | 0.0852 | 0.0705
285.65 K | 0.0511 | 0.13 | 0.0811 | 0.0593 | 0.089 | 0.0749
288.15 K | 0.0546 | 0.137 | 0.0854 | 0.0632 | 0.0938 | 0.0795
290.65 K | 0.0581 | 0.144 | 0.0903 | 0.0672 | 0.0988 | 0.0839
293.15 K | 0.0618 | 0.15 | 0.0955 | 0.0711 | 0.104 | 0.0889
295.65 K | 0.0653 | 0.157 | 0.101 | 0.0755 | 0.109 | 0.0946
298.15 K | 0.0694 | 0.164 | 0.107 | 0.0802 | 0.115 | 0.0997
300.65 K | 0.0736 | 0.172 | 0.113 | 0.0851 | 0.121 | 0.105
303.15 K | 0.0784 | 0.18 | 0.119 | 0.0906 | 0.127 | 0.112
305.65 K | 0.0829 | 0.189 | 0.126 | 0.0957 | 0.134 | 0.118
308.15 K | 0.0881 | 0.198 | 0.132 | 0.102 | 0.14 | 0.125
310.65 K | 0.0931 | 0.206 | 0.139 | 0.108 | 0.147 | 0.132
313.15 K | 0.0989 | 0.216 | 0.147 | 0.114 | 0.154 | 0.139
315.65 K | 0.105 | 0.226 | 0.154 | 0.121 | 0.162 | 0.147
318.15 K | 0.111 | 0.236 | 0.163 | 0.129 | 0.171 | 0.155
